Assay results from ChEMBL document CHEMBL1221213, “Biomimetic synthesis of the IDO inhibitors exiguamine A and B” (Nat Chem Biol, 2008).

Biological target: Indoleamine 2,3-dioxygenase 1 (Homo sapiens, UniProt P14902)
Assay: Inhibition of human recombinant indoleamine-2,3-dioxygenase

Sequence of Indoleamine 2,3-dioxygenase 1 (P14902 whole entry): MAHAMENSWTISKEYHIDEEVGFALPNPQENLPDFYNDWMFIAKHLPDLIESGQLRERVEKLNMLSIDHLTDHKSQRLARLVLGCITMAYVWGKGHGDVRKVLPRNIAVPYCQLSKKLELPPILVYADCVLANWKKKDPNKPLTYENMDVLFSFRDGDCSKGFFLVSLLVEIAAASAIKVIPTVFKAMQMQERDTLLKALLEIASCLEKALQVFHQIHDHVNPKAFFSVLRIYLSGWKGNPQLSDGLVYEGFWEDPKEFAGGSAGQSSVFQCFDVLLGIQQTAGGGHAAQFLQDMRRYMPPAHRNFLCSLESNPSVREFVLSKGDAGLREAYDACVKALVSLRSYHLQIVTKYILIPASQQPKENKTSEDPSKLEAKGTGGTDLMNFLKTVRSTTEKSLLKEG

SMILES	Ki
CN(C)CCc1ccc(O)c(O)c1C1=C(C2C(=O)N(C)C(=O)N2C)C(=O)c2c(CCN)c[nH]c2C1=O (configuration not stated)	0.08 µM
CN1C(=O)N(C)[C@]2(Oc3c(O)cc4c(c3C3=C2C(=O)c2c(CCN)c[nH]c2C3=O)[C@H](O)C[N+]4(C)C)C1=O [EXIGUAMINE B]	0.08 µM
